Data on one compound can be found in patent US20140228377A1, “METHYLPIPERIDINE DERIVATIVE” (TAISHO PHARMACEUTICAL CO., LTD., priority 2011, published 2014).

Series [1] concerns the target T1, human orexin-1 receptor (hOX1R) (Homo sapiens, UniProt O43613).
T1 construct: expressed in transfected cells; host or cells: Chinese hamster ovary (CHO) cells
T1 sequence (O43613 1-425): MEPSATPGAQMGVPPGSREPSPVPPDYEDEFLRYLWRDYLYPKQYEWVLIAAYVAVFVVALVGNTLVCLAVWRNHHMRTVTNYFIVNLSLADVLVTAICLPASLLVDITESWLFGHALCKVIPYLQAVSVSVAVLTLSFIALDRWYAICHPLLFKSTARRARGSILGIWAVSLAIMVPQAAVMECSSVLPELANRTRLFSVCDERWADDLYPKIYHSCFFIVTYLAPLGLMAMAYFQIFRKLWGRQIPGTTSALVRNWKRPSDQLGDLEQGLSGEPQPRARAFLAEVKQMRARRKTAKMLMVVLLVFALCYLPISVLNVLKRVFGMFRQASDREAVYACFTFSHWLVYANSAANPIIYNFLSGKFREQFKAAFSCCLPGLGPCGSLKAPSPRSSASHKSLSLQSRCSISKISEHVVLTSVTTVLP
In words: Orexin antagonistic activity assay (intracellular Ca2+, FDSS) in CHO cells expressing hOX1R. The note with it: CHO cells expressing hOX1R; ligand peptide 300 pM; Fluo-3 maximum fluorescence intensity; read-out: IC50 value OX1. The series is classed as cell-based. In short, it runs like this: (§1)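 Recombinant CHO cells, Fluo-3 AM loaded, were preincubated 30 min with compound, then stimulated with a modified orexin-A peptide (300 pM for hOX1R, 3 nM for hOX2R). Peak Ca2+ fluorescence read each second for 3 min; IC50 from concentration-response, normalised to ligand-only (100%) and no-ligand (0%) wells.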

Series [2] has as its target T2, orexin-2 receptor (hOX2R) (Homo sapiens, UniProt O43614).
T2 construct: expressed in transfected cells; host or cells: Chinese hamster ovary (CHO) cells
T2 sequence (O43614 1-444): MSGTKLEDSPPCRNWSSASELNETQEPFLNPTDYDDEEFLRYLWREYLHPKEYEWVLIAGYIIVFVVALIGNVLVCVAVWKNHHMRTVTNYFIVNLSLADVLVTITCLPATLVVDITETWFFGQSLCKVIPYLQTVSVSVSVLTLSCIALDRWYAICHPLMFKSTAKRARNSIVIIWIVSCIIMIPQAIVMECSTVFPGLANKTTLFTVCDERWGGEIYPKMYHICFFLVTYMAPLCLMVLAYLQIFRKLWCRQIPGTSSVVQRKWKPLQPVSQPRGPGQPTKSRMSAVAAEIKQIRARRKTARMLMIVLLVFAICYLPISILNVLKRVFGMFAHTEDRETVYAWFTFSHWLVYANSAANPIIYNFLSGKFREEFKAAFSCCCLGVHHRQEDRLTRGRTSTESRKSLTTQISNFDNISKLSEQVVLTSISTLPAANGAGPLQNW
The series can be described thus: Orexin antagonistic activity assay (intracellular Ca2+, FDSS) in CHO cells expressing hOX2R. The class given is cell-based. The conditions noted are these: CHO cells expressing hOX2R; ligand peptide 3 nM; Fluo-3 maximum fluorescence intensity; read-out: IC50 value OX2. In short, it runs like this:
as §1

Series [3] is described as follows: Metabolic stability test using human liver microsomes. The conditions noted are these: human liver microsomes 0.25 mg protein/mL, test compound 1 μM, 37° C., 15 minutes, NADPH production system. The class given is in vitro ADME. Here is the method: The stability test on a test compound was conducted according to the following method using human liver microsomes (Ms):
The test compound was incubated (37° C., 15 minutes) together with human liver microsome fraction (XenoTech LLC; H630B, lot. 0810472) in a 0.1 M phosphate buffer solution (pH 7.4) in the presence of a NADPH production system (0.16 mM NADP+, 2.5 mM MgCl2, and 1.5 mM glucose-6-phosphate). The final concentrations of the test compound and the liver Ms protein were set to 1 μM and 0.25 mg protein/mL, respectively. After the incubation, the reaction mixture was supplemented with a 2-fold volume of DMSO, stirred, and then centrifuged at 2150×g (4° C., 10 minutes). The obtained supernatant was analyzed using a liquid chromatography tandem mass spectrometry (LC-MS/MS) system. The lower limit of quantification was 0.1 μM.

In the case of `Cc1ccc(-n2nccn2)c(C(=O)N2C[C@H](c3nc4cc(Cl)ccc4o3)CC[C@H]2C)n1` [Example 1, [(2R,5R)-5-(5-Chloro-1,3-benzoxazol-2-yl)-2-methylpiperidin-1-yl][6-methyl-3-(2H-1,2,3-triazol-2-yl)pyridin-2-yl]methanone], the IC50 in series [1] turned out to be 11 nM; in series [2], 12.2 nM. In addition, the rate of metabolism in series [3] was found to be 27.8%.
